Measured values taken from ChEMBL document CHEMBL1201862, “PubChem BioAssay data set” (2004).
Activity calls are given as the source filed them.

Columns and labels:
[1] = target: Melanin-concentrating hormone receptor 1 (Homo sapiens, UniProt Q99705); experiment: Late-stage fluorescence-based counterscreen for antagonists of the G-protein coupled receptor 7 (GPR7): cell-based dose response assay to identify antagonists of the melanin-concentrating hormone receptor 1 (MCHR1) Set 6.; format: functional
[2] = target: T1, Neuropeptides B/W receptor type 1 (Homo sapiens, UniProt P48145); experiment: human NPBW1 receptor blockade, IC50 – cell-based, fluorescence, dose response, set 6, late-stage follow-up (AID 588583); format: functional
T1 sequence (P48145 whole entry): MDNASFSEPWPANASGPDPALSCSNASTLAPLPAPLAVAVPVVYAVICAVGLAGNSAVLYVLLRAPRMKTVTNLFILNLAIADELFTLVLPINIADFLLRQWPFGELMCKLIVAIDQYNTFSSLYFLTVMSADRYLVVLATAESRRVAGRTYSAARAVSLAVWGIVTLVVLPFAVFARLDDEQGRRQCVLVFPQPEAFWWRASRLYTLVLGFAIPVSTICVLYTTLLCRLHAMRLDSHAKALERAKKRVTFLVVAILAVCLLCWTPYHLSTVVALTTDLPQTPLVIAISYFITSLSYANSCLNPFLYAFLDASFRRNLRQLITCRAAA

LIM domain kinase 1 = LIM domain kinase 1 (Homo sapiens, UniProt P53667); experiment: Navigating the Kinome. Panel member name: LIMK1; format: functional
Chain of LIM domain kinase 1 (P53667 whole entry, the tested form may be a part): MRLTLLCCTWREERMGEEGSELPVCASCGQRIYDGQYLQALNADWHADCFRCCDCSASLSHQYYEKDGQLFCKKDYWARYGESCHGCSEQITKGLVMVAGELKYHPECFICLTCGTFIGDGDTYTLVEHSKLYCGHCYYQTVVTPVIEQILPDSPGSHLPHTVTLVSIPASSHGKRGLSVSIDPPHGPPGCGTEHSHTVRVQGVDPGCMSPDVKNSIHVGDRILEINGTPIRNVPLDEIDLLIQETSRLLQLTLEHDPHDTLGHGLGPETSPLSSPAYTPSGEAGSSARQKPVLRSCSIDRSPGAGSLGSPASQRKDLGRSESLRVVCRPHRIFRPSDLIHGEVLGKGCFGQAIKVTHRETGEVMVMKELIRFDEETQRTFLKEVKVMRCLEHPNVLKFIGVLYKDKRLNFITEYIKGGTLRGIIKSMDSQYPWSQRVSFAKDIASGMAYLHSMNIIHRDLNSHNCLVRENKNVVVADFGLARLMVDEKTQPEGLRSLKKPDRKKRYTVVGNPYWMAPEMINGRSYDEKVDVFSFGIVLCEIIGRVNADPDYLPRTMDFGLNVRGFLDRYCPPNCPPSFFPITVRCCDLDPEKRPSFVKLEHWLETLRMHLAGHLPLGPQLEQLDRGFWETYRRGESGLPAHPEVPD

[3] = target: Serine/threonine-protein kinase Chk1 (Homo sapiens, UniProt O14757); format: functional;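 further: measured as one member of a kinome-wide kinase profiling panel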
Chain of Serine/threonine-protein kinase Chk1 (O14757 whole entry): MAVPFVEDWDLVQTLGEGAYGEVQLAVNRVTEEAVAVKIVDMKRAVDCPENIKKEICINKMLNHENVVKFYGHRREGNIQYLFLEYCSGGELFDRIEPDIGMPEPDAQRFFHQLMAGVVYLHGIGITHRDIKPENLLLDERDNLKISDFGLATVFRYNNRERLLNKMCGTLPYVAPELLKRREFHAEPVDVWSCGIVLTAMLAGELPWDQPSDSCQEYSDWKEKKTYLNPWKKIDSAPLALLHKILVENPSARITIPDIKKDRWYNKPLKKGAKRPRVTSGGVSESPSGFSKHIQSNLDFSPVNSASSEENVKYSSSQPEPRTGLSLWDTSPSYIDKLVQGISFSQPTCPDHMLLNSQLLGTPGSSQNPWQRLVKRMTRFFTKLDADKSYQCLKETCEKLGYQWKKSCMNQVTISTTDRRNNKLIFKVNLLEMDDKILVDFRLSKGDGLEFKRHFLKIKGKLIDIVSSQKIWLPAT

Melanocortin receptor 4 = Melanocortin receptor 4 (Homo sapiens, UniProt P32245); experiment: inhibitors of MC4R cAMP signaling – cell-based, TR-FRET, biased antagonists, dose response (AID 602298); format: functional;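 further: antagonist potency against agonist-stimulated cAMP production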
[4] = cAMP pathway inhibition in counterscreen cell line – TR-FRET cAMP detection, counter-screen for MC4R biased antagonist project, dose response (AID 602305); format: functional, cell-based;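 further: U2OS cells stimulated with forskolin near its EC80 as the cAMP inducer; potency is for inhibition of forskolin-stimulated cAMP signaling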
HEK293 = experiment: EBV LMP1 TES2 canonical NF-kB signalling blockers – cell-based, HEK293, luciferase, cherry-pick, dose response (AID 588343); format: functional; details: Homo sapiens
[5] = target: Latent membrane protein 1 (Human herpesvirus 4 (strain B95-8), UniProt P03230); experiment: LMP1 TES1 pathway selectivity over dsRED control – imaging, HEK293T, dual-color eGFP/dsRED, cherry-picks, selectivity assay for LMP1 NF-kB inhibitor project, dose response (AID 588398); format: functional, cell-based
CHO = CHO cell viability loss, potency – luminescence, cytotoxicity control for TLR9-MyD88 binding inhibitor project, dose response (AID 588339); format: functional, cell-based, hamster; details: Cricetulus griseus;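 further: CHO cells stably coexpressing TLR9 and MyD88 fusions from primary screen; compound exposure lasted 48 hours before viability readout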
[6] = target: T2, Corticotropin-releasing factor receptor 2/Corticotropin-releasing factor-binding protein (Homo sapiens, UniProt P24387+Q13324); experiment: activators of CRF receptor 2 with binding protein – uHTS hits, confirmation (AID 602473); format: functional; details: read-out: EC50_Mean
T2 sequence (Q13324 whole entry): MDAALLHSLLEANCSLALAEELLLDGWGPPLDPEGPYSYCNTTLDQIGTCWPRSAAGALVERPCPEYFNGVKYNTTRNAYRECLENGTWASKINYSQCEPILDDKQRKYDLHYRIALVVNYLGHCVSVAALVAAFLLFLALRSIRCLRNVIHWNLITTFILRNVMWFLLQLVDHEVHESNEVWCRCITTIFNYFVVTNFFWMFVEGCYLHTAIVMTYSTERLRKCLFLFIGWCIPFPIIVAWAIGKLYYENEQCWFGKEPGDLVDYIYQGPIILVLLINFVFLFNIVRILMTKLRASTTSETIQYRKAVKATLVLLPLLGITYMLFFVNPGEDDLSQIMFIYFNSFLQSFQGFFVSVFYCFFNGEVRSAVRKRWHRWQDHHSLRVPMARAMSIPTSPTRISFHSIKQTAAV
T2 sequence (P24387 whole entry): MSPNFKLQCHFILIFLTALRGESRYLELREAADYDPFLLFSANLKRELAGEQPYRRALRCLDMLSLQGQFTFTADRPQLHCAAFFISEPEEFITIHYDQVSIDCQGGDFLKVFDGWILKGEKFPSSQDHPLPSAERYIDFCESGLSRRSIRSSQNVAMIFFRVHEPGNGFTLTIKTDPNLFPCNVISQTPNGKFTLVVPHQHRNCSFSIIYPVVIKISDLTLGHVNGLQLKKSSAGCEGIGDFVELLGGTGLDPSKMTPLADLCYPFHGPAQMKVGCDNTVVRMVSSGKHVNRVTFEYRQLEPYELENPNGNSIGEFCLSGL

Beta Lactamase = Beta Lactamase (Pseudomonas aeruginosa, UniProt Q932Y6); experiment: BLA reporter interference, concentration series – BLA reporter cells, FRET fluorescence, artefact control for TLR9-MyD88 binding inhibitor project, dose response (AID 588341); format: cell-based;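 further: cell based assay in CHO-K1 cells stably expressing beta-lactamase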
Caspase-3 = target: T3, Caspase-3 (Homo sapiens, UniProt P42574); experiment: SAR Analysis of small molecule inhibitors of Sentrin-specific proteases (SENPs) using a Caspase-3 Selectivity assay. [Related pubchem assays (depositor defined):AID2540, AID2599, AID434973, AID489001]; format: functional
T3 sequence (P42574 whole entry): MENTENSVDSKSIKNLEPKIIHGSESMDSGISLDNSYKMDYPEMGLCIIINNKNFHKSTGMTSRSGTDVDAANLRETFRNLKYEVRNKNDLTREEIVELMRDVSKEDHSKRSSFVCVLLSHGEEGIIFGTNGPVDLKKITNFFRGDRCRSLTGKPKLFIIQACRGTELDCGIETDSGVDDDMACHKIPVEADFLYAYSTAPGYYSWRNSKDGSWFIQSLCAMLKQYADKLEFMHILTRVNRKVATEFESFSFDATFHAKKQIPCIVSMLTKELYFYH

[7] = target: T4, Sentrin-specific protease 6 (Homo sapiens, UniProt Q9GZR1); experiment: SAR Analysis of small molecule inhibitors of Sentrin-specific protease 6 (SENP6) using a Luminescent assay. [Related pubchem assays (depositor defined):AID2582, AID2599]; format: functional
T4 sequence (Q9GZR1 whole entry): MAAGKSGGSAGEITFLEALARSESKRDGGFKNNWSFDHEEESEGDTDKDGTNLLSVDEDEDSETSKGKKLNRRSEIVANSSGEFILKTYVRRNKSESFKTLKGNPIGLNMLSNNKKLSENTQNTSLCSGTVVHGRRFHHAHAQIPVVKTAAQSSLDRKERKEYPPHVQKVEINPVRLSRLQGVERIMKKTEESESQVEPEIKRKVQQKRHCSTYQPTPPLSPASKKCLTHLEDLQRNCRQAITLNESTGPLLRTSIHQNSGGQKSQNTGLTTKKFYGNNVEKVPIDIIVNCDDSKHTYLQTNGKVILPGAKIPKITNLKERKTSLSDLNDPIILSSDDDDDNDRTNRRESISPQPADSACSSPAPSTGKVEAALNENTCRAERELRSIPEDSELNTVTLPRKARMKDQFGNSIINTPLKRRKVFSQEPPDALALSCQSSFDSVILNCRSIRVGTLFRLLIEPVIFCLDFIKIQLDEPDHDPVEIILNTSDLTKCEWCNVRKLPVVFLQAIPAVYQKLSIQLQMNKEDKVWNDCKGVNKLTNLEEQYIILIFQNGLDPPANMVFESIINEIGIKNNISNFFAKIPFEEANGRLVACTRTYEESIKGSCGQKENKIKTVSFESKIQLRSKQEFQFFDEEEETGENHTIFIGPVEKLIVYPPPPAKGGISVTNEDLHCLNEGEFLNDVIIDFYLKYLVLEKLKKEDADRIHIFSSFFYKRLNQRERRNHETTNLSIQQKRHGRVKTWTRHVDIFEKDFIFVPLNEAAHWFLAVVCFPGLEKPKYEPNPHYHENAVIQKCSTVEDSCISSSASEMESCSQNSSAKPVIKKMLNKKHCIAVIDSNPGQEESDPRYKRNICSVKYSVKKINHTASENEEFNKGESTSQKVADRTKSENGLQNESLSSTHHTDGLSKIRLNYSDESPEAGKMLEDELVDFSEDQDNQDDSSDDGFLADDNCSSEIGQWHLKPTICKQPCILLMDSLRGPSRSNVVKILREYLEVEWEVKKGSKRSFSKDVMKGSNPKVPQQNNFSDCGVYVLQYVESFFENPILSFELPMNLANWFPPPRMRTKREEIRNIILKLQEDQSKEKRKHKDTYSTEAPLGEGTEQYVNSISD

[8] = target: T5, Sentrin-specific protease 7 (Homo sapiens, UniProt Q9BQF6); experiment: inhibition of human SENP7 cleavage activity – biochemical, luminescence, SAR follow-up (AID 504497); format: functional
T5 sequence (Q9BQF6 whole entry): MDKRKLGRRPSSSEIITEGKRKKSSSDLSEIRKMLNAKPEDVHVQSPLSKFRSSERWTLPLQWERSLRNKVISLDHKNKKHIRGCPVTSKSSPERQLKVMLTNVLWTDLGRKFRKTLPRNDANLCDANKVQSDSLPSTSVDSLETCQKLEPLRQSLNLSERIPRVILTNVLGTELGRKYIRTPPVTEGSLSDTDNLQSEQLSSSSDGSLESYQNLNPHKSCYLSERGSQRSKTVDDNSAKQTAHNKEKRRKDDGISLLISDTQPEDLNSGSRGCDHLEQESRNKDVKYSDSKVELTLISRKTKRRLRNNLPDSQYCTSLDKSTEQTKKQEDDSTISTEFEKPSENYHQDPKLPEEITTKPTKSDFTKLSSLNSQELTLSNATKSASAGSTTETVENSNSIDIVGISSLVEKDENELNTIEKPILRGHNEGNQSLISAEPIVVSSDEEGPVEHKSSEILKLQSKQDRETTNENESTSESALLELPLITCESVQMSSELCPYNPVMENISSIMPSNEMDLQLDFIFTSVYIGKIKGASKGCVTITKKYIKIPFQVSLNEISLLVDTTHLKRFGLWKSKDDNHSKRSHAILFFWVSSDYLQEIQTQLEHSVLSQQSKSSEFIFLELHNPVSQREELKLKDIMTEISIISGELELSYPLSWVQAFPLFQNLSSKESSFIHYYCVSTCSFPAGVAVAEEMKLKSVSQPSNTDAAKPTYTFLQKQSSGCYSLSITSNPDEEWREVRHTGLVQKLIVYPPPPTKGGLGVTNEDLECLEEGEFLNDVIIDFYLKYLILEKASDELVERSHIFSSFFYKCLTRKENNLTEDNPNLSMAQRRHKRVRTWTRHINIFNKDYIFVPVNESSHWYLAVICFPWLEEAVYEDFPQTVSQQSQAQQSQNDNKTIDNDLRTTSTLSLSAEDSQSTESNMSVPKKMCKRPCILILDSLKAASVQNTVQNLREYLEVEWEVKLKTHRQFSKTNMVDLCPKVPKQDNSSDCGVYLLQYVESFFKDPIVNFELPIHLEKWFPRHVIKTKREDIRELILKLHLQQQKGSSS

[9] = target: T6, Sentrin-specific protease 8 (Homo sapiens, UniProt Q96LD8); experiment: inhibition of human SENP8 cleavage activity – biochemical, luminescence, SAR follow-up (AID 504501); format: functional
T6 sequence (Q96LD8 whole entry): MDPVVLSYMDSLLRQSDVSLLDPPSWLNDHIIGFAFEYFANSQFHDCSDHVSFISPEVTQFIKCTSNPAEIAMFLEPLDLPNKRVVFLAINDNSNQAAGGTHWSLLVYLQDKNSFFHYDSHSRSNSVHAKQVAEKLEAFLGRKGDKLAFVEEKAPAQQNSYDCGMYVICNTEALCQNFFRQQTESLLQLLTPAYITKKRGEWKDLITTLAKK

[10] = target: Glycogen synthase kinase-3 beta (Homo sapiens, UniProt P49841); format: functional;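 further: value comes from a broad kinome profiling panel, with GSK3B as the panel member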
[11] = target: Interleukin-1 receptor-associated kinase 4 (Homo sapiens, UniProt Q9NWZ3); format: functional
[12] = target: Serine/threonine-protein kinase pim-1 (Homo sapiens, UniProt P11309); format: functional
[13] = target: Mitogen-activated protein kinase kinase kinase kinase 4 (Homo sapiens, UniProt O95819); format: functional
[14] = target: Cell division cycle 7-related protein kinase (Homo sapiens, UniProt O00311); format: functional;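 further: value obtained from a kinome-wide kinase panel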
[15] = target: Dual specificity protein kinase CLK4 (Homo sapiens, UniProt Q9HAZ1); format: functional
[16] = target: Homeodomain-interacting protein kinase 2 (Homo sapiens, UniProt Q9H2X6); format: functional;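 further: measured within a kinome-wide kinase profiling panel, HIPK2 being one panel member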
Chain of Homeodomain-interacting protein kinase 2 (Q9H2X6 whole entry): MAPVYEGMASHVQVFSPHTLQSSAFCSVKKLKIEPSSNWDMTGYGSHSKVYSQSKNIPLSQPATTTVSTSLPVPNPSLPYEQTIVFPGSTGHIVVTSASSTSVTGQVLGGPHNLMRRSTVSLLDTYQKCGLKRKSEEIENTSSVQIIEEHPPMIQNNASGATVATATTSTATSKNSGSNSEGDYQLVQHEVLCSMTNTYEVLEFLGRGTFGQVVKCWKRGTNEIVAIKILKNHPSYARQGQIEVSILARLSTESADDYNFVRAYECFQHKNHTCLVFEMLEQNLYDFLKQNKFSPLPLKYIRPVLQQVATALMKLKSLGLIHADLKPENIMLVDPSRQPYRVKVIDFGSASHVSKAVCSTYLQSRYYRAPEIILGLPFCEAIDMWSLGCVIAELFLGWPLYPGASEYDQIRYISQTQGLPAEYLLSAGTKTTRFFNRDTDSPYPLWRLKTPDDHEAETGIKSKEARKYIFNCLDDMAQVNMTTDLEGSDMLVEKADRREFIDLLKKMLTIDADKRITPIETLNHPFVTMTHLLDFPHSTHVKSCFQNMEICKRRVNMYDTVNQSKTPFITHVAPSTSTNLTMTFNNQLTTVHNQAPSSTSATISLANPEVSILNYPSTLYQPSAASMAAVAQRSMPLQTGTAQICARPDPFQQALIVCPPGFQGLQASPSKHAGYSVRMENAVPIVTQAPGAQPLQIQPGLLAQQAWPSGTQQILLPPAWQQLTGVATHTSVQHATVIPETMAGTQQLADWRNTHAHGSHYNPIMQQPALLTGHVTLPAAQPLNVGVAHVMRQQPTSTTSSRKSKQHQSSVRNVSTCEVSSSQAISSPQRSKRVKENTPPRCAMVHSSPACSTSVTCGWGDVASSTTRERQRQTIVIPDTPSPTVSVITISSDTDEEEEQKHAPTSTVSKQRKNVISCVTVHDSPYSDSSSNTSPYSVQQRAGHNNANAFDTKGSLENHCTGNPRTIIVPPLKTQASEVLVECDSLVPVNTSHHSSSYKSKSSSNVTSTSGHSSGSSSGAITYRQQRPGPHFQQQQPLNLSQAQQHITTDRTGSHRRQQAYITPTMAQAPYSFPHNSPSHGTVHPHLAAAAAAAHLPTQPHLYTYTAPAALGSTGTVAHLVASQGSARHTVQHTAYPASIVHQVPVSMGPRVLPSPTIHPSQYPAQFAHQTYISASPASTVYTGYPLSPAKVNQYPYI

[17] = target: cAMP-dependent protein kinase catalytic subunit alpha (Homo sapiens, UniProt P17612); format: functional
[18] = target: cAMP-dependent protein kinase catalytic subunit PRKX (Homo sapiens, UniProt P51817); format: functional
[19] = target: Vascular endothelial growth factor receptor 2 (Homo sapiens, UniProt P35968); format: functional
[20] = target: Leukocyte tyrosine kinase receptor (Homo sapiens, UniProt P29376); experiment: Navigating the Kinome. Panel member name: LTK; format: functional
[21] = target: Leucine-rich repeat serine/threonine-protein kinase 2 (Homo sapiens, UniProt Q5S007); format: functional;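 further: value from a broad kinome-wide panel profiling study in which LRRK2 was one of the kinases tested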
Chain of Leucine-rich repeat serine/threonine-protein kinase 2 (Q5S007 whole entry): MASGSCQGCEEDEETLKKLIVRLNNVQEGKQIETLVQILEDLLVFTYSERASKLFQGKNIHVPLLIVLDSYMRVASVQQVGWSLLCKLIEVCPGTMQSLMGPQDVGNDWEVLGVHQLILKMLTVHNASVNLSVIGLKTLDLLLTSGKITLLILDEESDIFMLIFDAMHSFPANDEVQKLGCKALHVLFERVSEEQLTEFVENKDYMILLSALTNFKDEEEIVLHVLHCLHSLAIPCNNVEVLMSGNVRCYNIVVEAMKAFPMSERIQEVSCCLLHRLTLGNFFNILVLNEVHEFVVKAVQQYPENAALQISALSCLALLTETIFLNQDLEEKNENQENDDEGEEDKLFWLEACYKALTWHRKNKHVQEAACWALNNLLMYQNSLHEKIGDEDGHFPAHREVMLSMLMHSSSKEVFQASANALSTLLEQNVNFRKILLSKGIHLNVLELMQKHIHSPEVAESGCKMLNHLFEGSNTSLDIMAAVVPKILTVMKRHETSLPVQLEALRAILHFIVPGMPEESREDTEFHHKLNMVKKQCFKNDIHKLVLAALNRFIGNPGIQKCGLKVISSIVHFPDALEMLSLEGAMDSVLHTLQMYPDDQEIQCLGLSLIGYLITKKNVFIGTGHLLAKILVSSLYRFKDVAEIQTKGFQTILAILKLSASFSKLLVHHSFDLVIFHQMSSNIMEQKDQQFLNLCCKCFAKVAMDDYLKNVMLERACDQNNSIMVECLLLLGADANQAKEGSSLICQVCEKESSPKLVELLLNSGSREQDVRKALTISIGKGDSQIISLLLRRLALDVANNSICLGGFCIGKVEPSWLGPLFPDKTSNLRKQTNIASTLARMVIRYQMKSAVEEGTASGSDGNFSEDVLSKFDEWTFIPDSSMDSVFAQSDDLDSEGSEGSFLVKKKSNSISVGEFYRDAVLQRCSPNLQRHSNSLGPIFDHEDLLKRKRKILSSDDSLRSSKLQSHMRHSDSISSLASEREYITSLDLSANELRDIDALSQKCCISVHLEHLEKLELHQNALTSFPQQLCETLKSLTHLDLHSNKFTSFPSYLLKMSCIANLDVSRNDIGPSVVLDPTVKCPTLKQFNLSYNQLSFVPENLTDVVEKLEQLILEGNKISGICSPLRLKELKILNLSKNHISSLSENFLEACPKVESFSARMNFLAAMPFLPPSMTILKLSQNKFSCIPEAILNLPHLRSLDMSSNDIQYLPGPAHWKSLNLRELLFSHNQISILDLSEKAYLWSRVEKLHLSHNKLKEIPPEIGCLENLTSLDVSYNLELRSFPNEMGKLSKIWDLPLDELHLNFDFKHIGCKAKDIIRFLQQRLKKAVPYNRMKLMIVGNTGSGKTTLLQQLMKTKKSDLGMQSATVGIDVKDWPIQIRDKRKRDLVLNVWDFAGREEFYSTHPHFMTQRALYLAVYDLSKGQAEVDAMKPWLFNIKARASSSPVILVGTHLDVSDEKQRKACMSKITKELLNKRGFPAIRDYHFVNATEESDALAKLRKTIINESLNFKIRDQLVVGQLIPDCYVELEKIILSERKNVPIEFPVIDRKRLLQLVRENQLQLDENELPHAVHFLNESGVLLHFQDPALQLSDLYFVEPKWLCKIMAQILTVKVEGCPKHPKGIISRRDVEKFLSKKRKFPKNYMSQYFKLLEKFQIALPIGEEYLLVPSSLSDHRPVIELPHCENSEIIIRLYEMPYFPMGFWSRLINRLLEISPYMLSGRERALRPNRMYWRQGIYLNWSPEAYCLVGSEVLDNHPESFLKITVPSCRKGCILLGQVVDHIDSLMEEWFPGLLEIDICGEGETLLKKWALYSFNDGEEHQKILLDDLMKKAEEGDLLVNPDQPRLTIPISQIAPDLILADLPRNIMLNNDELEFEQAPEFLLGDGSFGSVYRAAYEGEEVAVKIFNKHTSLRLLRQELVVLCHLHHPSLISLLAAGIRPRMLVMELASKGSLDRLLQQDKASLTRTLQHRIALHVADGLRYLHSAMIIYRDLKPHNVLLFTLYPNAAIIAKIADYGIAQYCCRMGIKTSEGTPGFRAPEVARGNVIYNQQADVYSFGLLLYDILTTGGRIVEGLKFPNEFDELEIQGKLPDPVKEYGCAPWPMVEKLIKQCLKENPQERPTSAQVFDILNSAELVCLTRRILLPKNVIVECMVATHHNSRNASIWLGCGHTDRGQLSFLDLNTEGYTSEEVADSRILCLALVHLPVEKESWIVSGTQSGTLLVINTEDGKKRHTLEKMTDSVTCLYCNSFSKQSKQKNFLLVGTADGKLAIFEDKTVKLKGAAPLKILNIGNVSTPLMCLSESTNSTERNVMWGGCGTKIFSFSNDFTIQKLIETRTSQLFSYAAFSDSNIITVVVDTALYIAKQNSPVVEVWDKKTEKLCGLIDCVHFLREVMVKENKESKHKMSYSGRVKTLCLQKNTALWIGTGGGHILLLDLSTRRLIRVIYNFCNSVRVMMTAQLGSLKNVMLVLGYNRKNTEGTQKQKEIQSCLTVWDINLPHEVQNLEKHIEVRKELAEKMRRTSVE

[22] = target: Tyrosine-protein kinase JAK2 (Homo sapiens, UniProt O60674); format: functional;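 further: JAK2 tested as one member of a kinase panel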

## COc1ccc(-c2c(Br)cnn(Cc3cccc4ccccc34)c2=O)cc1
[1]
  IC50: 974 nM (active)
[2]
  IC50: 974 nM (active)

## Clc1ccc2c(c1)NC1(CCCCC1)N2
LIM domain kinase 1
  Ki: 2000 nM (active)
[3]
  Ki: 2510 nM (active)

## CN1CCC(Oc2ccccc2Sc2ccc(C(F)(F)F)cc2)CC1
Melanocortin receptor 4
  IC50: > 64600 nM (inactive)
[4]
  IC50: > 64600 nM (inactive)

## CC(=O)N1c2ccc(S(=O)(=O)N3CCC(C(=O)N4CCN(c5ccc(Cl)cc5)CC4)CC3)cc2CC1C (stereo not drawn)
HEK293
  AC50: 1010 nM (active)
[5]
  AC50: 108000 nM (active)

## CC(O)CN(CC(C)O)c1ccc2c(c1)Cc1cc([N+](=O)[O-])ccc1-2 (stereo not drawn)
CHO
  IC50: > 49800 nM (inactive)
[6]
  EC50: 870 nM (active)
Beta Lactamase
  IC50: 5090 nM (active)

## Clc1ccc(/C=N/Nc2cc(N3CCOCC3)nc(N3CCOCC3)n2)c(Cl)c1
Caspase-3
  IC50: > 99000 nM (inactive)
[7]
  IC50: > 99000 nM (inactive)
[8]
  IC50: > 99000 nM (inactive)
[9]
  IC50: > 99000 nM (inactive)

## CCCCNc1c(-c2ccc3[nH]ncc3c2)nc2ncccn12
[10]
  Ki: 15.8 nM (active)
[11]
  Ki: > 10000 nM (inactive)
[12]
  Ki: 501 nM (active)
[13]
  Ki: 1580 nM (active)
[14]
  Ki: 10 nM (active)
[15]
  Ki: 3.98 nM (active)
[16]
  Ki: 100 nM (active)
[17]
  Ki: 1000 nM (active)

## CC(=O)c1c(C)c2cnc(Nc3ccc(N4CCNCC4)cn3)nc2n(C2CCCC2)c1=O [PALBOCICLIB]
[18]
  Ki: 2510 nM (active)
[19]
  Ki: > 2000 nM (inactive)
[20]
  Ki: > 2510 nM (inactive)
[21]
  Ki: 2510 nM (active)
[22]
  Ki: > 2510 nM (inactive)
